Reference: PMC5987196 (ACS infectious diseases, 2017)
Read-outs that look alike come from different tables or passages of the source.

Tests used:
[1] = test system: AB0057 A. baumannii spp. clinical strain; experiment: Disk susceptibility assay; type: cell-based; details: zone size
[2] = test system: E. coli carrying blaADC37 encoded in pBC SK (−); experiment: MIC broth microdilution with ceftazidime plus BATSI; type: cell-based, Escherichia coli DH10B; details: for MIC broth dilution: CAZ MIC with 10 μg/mL compound, CAZ varied from 0 to 128 μg/mL
[3] = test system: E. coli carrying blaADC37 encoded in pBC SK (−); experiment: Disk susceptibility assay; type: cell-based, Escherichia coli DH10B; details: 10 μg of BAI and 10 μg of ceftazidime per disk, zone size
ADC-7 [4] = target: T1, ADC-7 (Acinetobacter baumannii, UniProt Q6DRA1); experiment: Competition kinetics with nitrocefin against ADC-7 β-lactamase; type: biochemical
ADC-7 [5] = target: T1, ADC-7; details: previously reported value for the lead compound; cited from earlier work
Pseudomonas PDC-3 = details: class C enzyme lacking Arg340; cited from earlier work
E. coli AmpC = details: class C enzyme lacking Arg340; cited from earlier work
[6] = 10 μg of BAI and 10 μg of sulbactam per disk

Molecule | disk assay [1, 6] | MIC broth dilution [2] | disk assay [3] | also measured
(1R)-2-(4-carboxamido-[1,2,3]triazol-1-yl)-1-(2-thienylacetylamino)ethaneboronate [3d] | 10 mm | 4 µg/mL | 18 mm | –
O=C(Cc1cccs1)N[C@@H](Cn1cc(-c2cccc(C(=O)O)c2)nn1)B(O)O [3c, (1R)-2-[4-(3-carboxyphenyl)-[1,2,3]triazol-1-yl]-1-(2-thienylacetylamino)ethaneboronic acid] | 15 mm | – | 24 mm | Ki (ADC-7 [4]): 46 ± 3 nM
O=C(Cc1cccs1)N[C@@H](Cn1cc(-c2cccc(-c3nn[nH]n3)c2)nn1)B(O)O [3j, (1R)-2-[4-(3-(2H-tetrazol-5-yl)phenyl)-[1,2,3]triazol-1-yl]-1-(2-thienylacetylamino)ethaneboronate] | 6 mm | 8 µg/mL | 15 mm | –
CC(C)(O/N=C(\C(=O)N[C@@H]1C(=O)N2C(C(=O)[O-])=C(C[n+]3ccccc3)CS[C@H]12)c1csc(N)n1)C(=O)O [CAZ, ceftazidime, reference compound] | – | – | – | MIC ([2]; Escherichia coli, read-out: MIC broth dilution): 32 µg/mL
O=C(Cc1cccs1)N[C@@H](Cn1cc(-c2nn[nH]n2)nn1)B(O)O [3h, (1R)-2-[4-(2H-tetrazol-5-yl)-[1,2,3]triazol-1-yl]-1-(2-thienylacetylamino)ethaneboronic acid] | 10 mm | – | 23 mm | –
CC1(C)[C@H](C(=O)O)N2C(=O)C[C@H]2S1(=O)=O [SUL, sulbactam, reference compound] | – | – | – | disk assay ([1]; SUL alone, 10 μg): SUL 6 mm; disk assay ([1]; SUL alone, 10 μg, listed as sulbactam): 6 mm
O=C(Cc1cccs1)N[C@@H](Cn1cc(C(=O)O)nn1)B(O)O [3a, (1R)-2-[4-carboxy-[1,2,3]triazol-1-yl]-1-(2-thienylace-tylamino)ethaneboronic acid] | 16 mm | 1 µg/mL | 26 mm | Ki (ADC-7 [5]): 44 nM
(1R)-2-(4-idroxycarbamoyl-[1,2,3]triazol-1-yl)-1-(2-thienylacetylamino)ethaneboronic acid [3e] | 8 mm | 2 µg/mL | 16 mm | –
O=C(O)Cc1cn(C[C@H](NC(=O)Cc2cccs2)B(O)O)nn1 [3b, (1R)-2-(4-carboxymethyl-[1,2,3]triazol-1-yl)-(2-thienylace-tylamino)ethaneboronic acid] | 10 mm | 2 µg/mL | 18 mm | less activity relative to 3a (ADC-7 [4]; Ki compared with 3a): 3 fold
O=C(Cc1cccs1)N[C@@H](Cc1cccc(C(=O)O)c1)B(O)O [EC04, reference compound] | 11 mm | 2 µg/mL | 21 mm | Ki (Pseudomonas PDC-3): 220 nM; Ki (E. coli AmpC): 1 nM
O=C(Cc1cccs1)N[C@H](B(O)O)c1cccc(C(=O)O)c1 [SM23, reference compound] | 12 mm | 1 µg/mL | 25 mm | Ki (Pseudomonas PDC-3): 4 nM; Ki (E. coli AmpC): 1 nM
